What all share (assay): Radioligand Binding Assay
For assay [1], the target named is T1, Gamma-aminobutyric acid receptor subunit alpha-4 [36-554]/beta-2 [26-512]/gamma-2 [40-467] (Homo sapiens, UniProt P18507+P47870+P48169).
T1 construct: 36-554; 26-512; 40-467
Particulars: pH 7.4; 22 °C.

The target of assay [2] is T2, Gamma-aminobutyric acid receptor subunit alpha-5 [32-462]/beta-2 [26-512]/gamma-2 [40-467] (Homo sapiens, UniProt P18507+P31644+P47870).
T2 construct: 32-462; 26-512; 40-467
As to conditions: pH 7.4; 22 °C.

Assay [3] deals with T3, Gamma-aminobutyric acid receptor subunit alpha-3 [29-492]/beta-2 [26-512]/gamma-2 [40-467] (Homo sapiens, UniProt P18507+P34903+P47870).
T3 construct: 29-492; 26-512; 40-467
As to conditions: pH 7.4; 22 °C.

Assay [4] deals with T4, Gamma-aminobutyric acid receptor subunit alpha-1 [28-456]/beta-2 [26-512]/gamma-2 [40-467,L179C] (Homo sapiens, UniProt P14867+P18507+P47870, L179C).
T4 construct: 28-456; 26-512; 40-467
As to conditions: 25 °C.

For assay [5], the target named is T5, Gamma-aminobutyric acid receptor subunit alpha-1 [28-456]/beta-2 [26-512]/gamma-2 [40-467,R183C] (Homo sapiens, UniProt P14867+P18507+P47870, R183C).
T5 construct: 28-456; 26-512; 40-467
Particulars: 25 °C.

Assay [6] deals with T6, Gamma-aminobutyric acid receptor subunit alpha-1 [F99C]/beta-2 [26-512]/gamma-2 [40-467] (Homo sapiens, UniProt P14867+P18507+P47870, F99C).
T6 construct: 26-512; 40-467
As to conditions: pH 7.4; 22 °C.

Assay [7] addresses T7, Gamma-aminobutyric acid receptor subunit alpha-1 [28-456]/beta-2 [26-512]/gamma-2 [40-467,R233C] (Homo sapiens, UniProt P14867+P18507+P47870, R233C).
T7 construct: 28-456; 26-512; 40-467
As to conditions: 25 °C.

The target in assay [8] is T8, Gamma-aminobutyric acid receptor subunit alpha-1 [A160C]/beta-2 [26-512]/gamma-2 [40-467] (Homo sapiens, UniProt P14867+P18507+P47870, A160C).
T8 construct: 26-512; 40-467
As to conditions: 25 °C.

In assay [9] the target is T9, Gamma-aminobutyric acid receptor subunit alpha-1 [28-456]/beta-2 [26-512]/gamma-2 [40-467,T120C] (Homo sapiens, UniProt P14867+P18507+P47870, T120C).
T9 construct: 28-456; 26-512; 40-467
As to conditions: 25 °C.

Assay [10] addresses T10, Gamma-aminobutyric acid receptor subunit alpha-1 [T162C]/beta-2 [26-512]/gamma-2 [40-467] (Homo sapiens, UniProt P14867+P18507+P47870, T162C).
T10 construct: 26-512; 40-467
Particulars: 25 °C.

Assay [11] addresses T11, Gamma-aminobutyric acid receptor subunit alpha-6 [20-453]/beta-2 [26-512]/gamma-2 [40-467] (Homo sapiens, UniProt P18507+P47870+Q16445).
T11 construct: 20-453; 26-512; 40-467
Particulars: pH 7.4; 22 °C.

In assay [12] the target is T12, Gamma-aminobutyric acid receptor subunit alpha-1 [V211C]/beta-2 [26-512]/gamma-2 [40-467] (Homo sapiens, UniProt P14867+P18507+P47870, V211C).
T12 construct: 26-512; 40-467
As to conditions: 25 °C.

Assay [13] deals with T13, Gamma-aminobutyric acid receptor subunit alpha-1 [28-456]/beta-2 [26-512]/gamma-2 [40-467,R224C] (Homo sapiens, UniProt P14867+P18507+P47870, R224C).
T13 construct: 28-456; 26-512; 40-467
Particulars: 25 °C.

The target in assay [14] is T14, Gamma-aminobutyric acid receptor subunit alpha-2 [29-451]/beta-2 [26-512]/gamma-2 [40-467] (Homo sapiens, UniProt P18507+P47869+P47870).
T14 construct: 29-451; 26-512; 40-467
Particulars: pH 7.4; 22 °C.

Assay [15] has as its target T15, Gamma-aminobutyric acid receptor subunit alpha-1 [T206C]/beta-2 [26-512]/gamma-2 [40-467] (Homo sapiens, UniProt P14867+P18507+P47870, T206C).
T15 construct: 26-512; 40-467
Particulars: 25 °C.

In assay [16] the target is T16, Gamma-aminobutyric acid receptor subunit alpha-1 [28-456]/beta-2 [26-512]/gamma-2 [40-467,D95C] (Homo sapiens, UniProt P14867+P18507+P47870, D95C).
T16 construct: 28-456; 26-512; 40-467
As to conditions: 25 °C.

Assay [17] concerns the target T17, Gamma-aminobutyric acid receptor subunit alpha-1 [28-456]/beta-2 [26-512]/gamma-2 [40-200],P14867[176-456] (Homo sapiens, UniProt P14867+P18507+P47870).
T17 construct: 28-456; 26-512; 40-200; 176-456
Particulars: 25 °C.

Assay [18] addresses T18, Gamma-aminobutyric acid receptor subunit alpha-1 [28-456]/beta-2 [26-512]/gamma-2 [40-467,T181C] (Homo sapiens, UniProt P14867+P18507+P47870, T181C).
T18 construct: 28-456; 26-512; 40-467
As to conditions: 25 °C.

Assay [19] addresses T19, Gamma-aminobutyric acid receptor subunit alpha-1 [G157C]/beta-2 [26-512]/gamma-2 [40-467] (Homo sapiens, UniProt P14867+P18507+P47870, G157C).
T19 construct: 26-512; 40-467
Particulars: 25 °C.

The target of assay [20] is T20, Gamma-aminobutyric acid receptor subunit alpha-1 [G200C]/beta-2 [26-512]/gamma-2 [40-467] (Homo sapiens, UniProt P14867+P18507+P47870, G200C).
T20 construct: 26-512; 40-467
Particulars: 25 °C.

The target of assay [21] is T21, Gamma-aminobutyric acid receptor subunit alpha-1 [S204C]/beta-2 [26-512]/gamma-2 [40-467] (Homo sapiens, UniProt P14867+P18507+P47870, S204C).
T21 construct: 26-512; 40-467
As to conditions: 25 °C.

For assay [22], the target named is T22, Gamma-aminobutyric acid receptor subunit alpha-1 [V202C]/beta-2 [26-512]/gamma-2 [40-467] (Homo sapiens, UniProt P14867+P18507+P47870, V202C).
T22 construct: 26-512; 40-467
Particulars: 25 °C.

For assay [23], the target named is T23, Gamma-aminobutyric acid receptor subunit alpha-1 [28-456]/beta-2 [26-512]/gamma-2 [40-467,A118C] (Homo sapiens, UniProt P14867+P18507+P47870, A118C).
T23 construct: 28-456; 26-512; 40-467
Particulars: 25 °C.

Assay [24] addresses T24, Gamma-aminobutyric acid receptor subunit alpha-1 [S205C]/beta-2 [26-512]/gamma-2 [40-467] (Homo sapiens, UniProt P14867+P18507+P47870, S205C).
T24 construct: 26-512; 40-467
As to conditions: 25 °C.

In assay [25] the target is T25, Gamma-aminobutyric acid receptor subunit alpha-1 [28-456]/beta-2 [26-512]/gamma-2 [40-467] (Homo sapiens, UniProt P14867+P18507+P47870).
T25 construct: 28-456; 26-512; 40-467
As to conditions: pH 7.4; 22 °C.

Assay [26] has as its target T26, Gamma-aminobutyric acid receptor subunit alpha-1 [28-456]/beta-2 [26-512]/gamma-2 [40-467,T165C] (Homo sapiens, UniProt P14867+P18507+P47870, T165C).
T26 construct: 28-456; 26-512; 40-467
As to conditions: 25 °C.

The target of assay [27] is T27, Gamma-aminobutyric acid receptor subunit alpha-1 [28-456]/beta-2 [26-512]/gamma-2 [40-467,R171C] (Homo sapiens, UniProt P14867+P18507+P47870, R171C).
T27 construct: 28-456; 26-512; 40-467
As to conditions: 25 °C.

Assay [28] deals with T28, Gamma-aminobutyric acid receptor subunit alpha-1 [28-456]/beta-2 [26-512]/gamma-2 [40-467,M169C] (Homo sapiens, UniProt P14867+P18507+P47870, M169C).
T28 construct: 28-456; 26-512; 40-467
Particulars: 25 °C.

Take `Cc1ccc(-c2nc3ccc(C)cn3c2CC(=O)N(C)C)cc1` [Ambien]: the Ki in assay [1] and in assay [2] was greater than 15000 nM throughout.
Consider `CN1CCN(C(=O)Oc2c3[nH]ccnc-3c(=O)n2-c2ccc(Cl)cn2)CC1` [ESZ], for which the Ki was 162 nM in assay [3]; greater than 15000 nM in [1]; 46.3 nM in [4]; 174 nM in assay [5]; 407 nM in assay [6]; 67 nM in assay [7]. Besides, the Ki in assay [2] is 102 nM; in [8], 60.4 nM; in [9], 75.2 nM; in assay [10] it was 33.8 nM; in assay [11], greater than 15000 nM; in assay [12] it was 62.4 nM. The Ki in assay [13] came to 70.9 nM; in assay [14] it was 114 nM; in assay [15], 0.83 nM; in assay [16], 82.4 nM; in [17], 22.4 nM; in assay [18] it was 503 nM. For the same molecule, the inhibition constant (Ki) in [19] worked out at 2100 nM; in assay [20] it was 119 nM; in [21], 57.9 nM; in assay [22], 249 nM; in [23], 393 nM; in [24], 34.9 nM. The Ki was 50.1 nM in assay [25], 71.9 nM in [26], 110 nM in assay [27] and 102 nM in assay [28].

Usually Ki stands for a dissociation constant, usually derived from enzyme kinetics or from competition with a known ligand. Read a high Ki as weaker binding.

The values above are taken from BindingDB's records for doi:10.1021/jm800889m (University of Wisconsin At Madison, 2008).
